Test results reported in PubChem BioAssay (NCI).
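Method: 48-hour compound exposure of cells in 96-well plates, five concentrations, linear interpolation of endpoints. Here, GI50 denotes the concentration required for 50% inhibition of growth. TGI denotes the concentration required for complete inhibition of growth.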

Tests used:
Experiment in all cases: DTP human tumour cell line panel, 48 h
MDA-MB-231 breast = system: MDA-MB-231 breast
MDA-N = system: MDA-N
PC-3 prostate = system: PC-3 prostate
NCI-H226 lung = system: NCI-H226 lung
RPMI-8226 leukemia = system: RPMI-8226 leukemia
SF-539 CNS = system: SF-539 CNS
HL-60(TB) leukemia = system: HL-60(TB) leukemia
HS 578T breast = system: HS 578T breast
M14 melanoma = system: M14 melanoma
SK-OV-3 ovarian = system: SK-OV-3 ovarian

| Compound | TGI (MDA-MB-231 breast) [µM] | TGI (MDA-N) [µM] | TGI (PC-3 prostate) [µM] | TGI (NCI-H226 lung) [µM] | TGI (RPMI-8226 leukemia) [µM] | TGI (SF-539 CNS) [µM] | TGI (HL-60(TB) leukemia) [µM] | TGI (HS 578T breast) [µM] | TGI (M14 melanoma) [µM] | TGI (SK-OV-3 ovarian) [µM] | GI50 (MDA-MB-231 breast) [µM] | GI50 (PC-3 prostate) [µM] | GI50 (NCI-H226 lung) [µM] | GI50 (RPMI-8226 leukemia) [µM] | GI50 (SF-539 CNS) [µM] | GI50 (HL-60(TB) leukemia) [µM] | GI50 (SK-OV-3 ovarian) [µM] | GI50 (HS 578T breast) [µM] |
| --- | --- | --- | --- | --- | --- | --- | --- | --- | --- | --- | --- | --- | --- | --- | --- | --- | --- | --- |
| COc1ccc(SC(C)(SC)c2ccccn2)c(OC)n1 (stereo unspecified) | > 100 | > 100 | > 100 | > 100 | 73.4 | > 100 | 28.3 | > 100 | > 100 | – | – | – | – | – | – | – | – | – |
| N#C/C=C1\C=CC(O)C(O)C1OC1OC(CO)C(O)C(O)C1O (stereo unspecified) | > 100 | > 100 | > 100 | – | > 100 | > 100 | > 100 | > 100 | > 100 | > 100 | – | – | – | – | – | – | – | – |
| S=C1N(c2ccc(Cl)cc2)C2=C(N=Nc3ccccc3)C(=Nc3ccccc3S2)N1c1ccccn1 | 25.4 | 30.1 | 27.6 | – | 43.6 | 30.4 | 28.1 | 32.7 | 26.6 | 31.6 | – | – | – | – | – | – | – | – |
| O=C1c2ccccc2-c2ccc(N=[N+]([O-])c3ccc4c(c3)C(=O)c3ccccc3-4)cc21 | > 100 | > 100 | > 100 | > 100 | > 100 | – | > 100 | > 100 | > 100 | > 100 | – | – | – | – | – | – | – | – |
| O=S(=O)(c1ccc(I)cc1)N(c1ccccc1)S(=O)(=O)C(F)(F)C(F)(F)C(F)(F)C(F)(F)F | > 100 | > 100 | > 100 | 58 | > 100 | > 100 | > 100 | 99.5 | > 100 | 74 | – | – | – | – | – | – | – | – |
| CC(C)C(N=Cc1ccccc1O)C(=O)O (stereo unspecified) | > 100 | > 100 | > 100 | > 100 | > 100 | > 100 | > 100 | > 100 | > 100 | > 100 | – | – | – | – | – | – | – | – |
| CC(O)C(O)C(N)CC=O (stereo unspecified) | – | – | – | > 500 | > 500 | > 500 | > 500 | – | – | > 500 | – | – | – | – | – | – | – | – |
| O=C(O)C1CC(c2ccccc2)=NN1c1ccccc1 (stereo unspecified) | > 100 | > 100 | > 100 | > 100 | > 100 | > 100 | > 100 | 81.6 | > 100 | > 100 | – | – | – | – | – | – | – | – |
| O=C1/C(=C\c2ccc(-c3ccc(Cl)cc3Cl)o2)SC2N=C(COc3ccc(Cl)cc3)NN12 (stereo unspecified) | > 100 | > 100 | > 100 | > 100 | > 100 | > 100 | > 100 | 87.8 | > 100 | > 100 | – | – | – | – | – | – | – | – |
| Fc1ccc(-c2ccc(-c3nnc(-c4cc(F)c(Cl)cc4Cl)o3)o2)cc1Cl | > 100 | – | > 100 | 76.1 | 72.9 | 85.7 | > 100 | 67.6 | – | > 100 | 29.7 | 36.9 | 20.9 | 26.4 | 29.4 | > 100 | 41.2 | 22.3 |
| O=S(O)c1cc(Cl)cc(Cl)c1O | – | – | – | – | – | > 100 | > 100 | – | > 100 | > 100 | – | – | – | – | – | – | – | – |
| O=C(/C=C/c1ccc(O)cc1)NCCc1ccc(O)cc1 | > 12.5 | > 12.5 | > 12.5 | > 12.5 | > 12.5 | 11.1 | > 12.5 | > 12.5 | > 12.5 | – | – | – | – | – | – | – | – | – |
| C[N+]1(C)CCC(C#N)(c2ccccc2)CC1 | – | > 100 | – | – | > 100 | – | > 100 | > 100 | > 100 | > 100 | – | – | – | – | – | – | – | – |
